# Data reported in US6187552A, “Method for identifying inhibitors of JAK2/cytokine receptor binding” (Pharmacia & Upjohn Company, priority 1998, dated 2001).
# Tested on: βc in human eosinophils
# Assay: Tyrosine phosphorylation of βc in human eosinophils stimulated with IL-5 (immunoblot)
# Type: cell-based
# Details: FIG. 2
# Method: Eosinophils were isolated from human whole blood or granulocyte leukapheresis packs obtained from Pharmacia and Upjohn Clinical Research Unit--Kalamazoo, Mich. Only blood from donors who had >5% peripheral blood eosinophils was used, while leukapheresis donors usually had 3-5% eosinophils. One unit of whole blood was divided among 50-ml polypropylene centrifuge tubes and centrifuged for 20 minutes at 300×g at room temperature (RT). The plasma was removed and 50 ml were centrifuged at 2500×g for 15 minutes at RT to remove platelets. The resulting platelet poor plasma (ppp) was diluted 1:4 in normal saline.
# Immediately after purification, eosinophils were resuspended at 2×10^7 cells/ml in RPMI 1640 medium (GibcoBRL, Gaithersburg, Md.) supplemented with 1% fetal bovine serum (FBS, GibcoBRL, Gaithersburg,Md.) and incubated 2 min at 37°. Recombinant human IL-5 (Biosource, Camarillo, Calif.) diluted in PBS with 0.1% bovine serum albumin was added at 12.5 ng/ml for various times using 1×10^7 cells per data point. Tubes were placed on ice and 10 volumes of PBS with 0.1 mM sodium orthovanadate were added to each tube. Eosinophils were pelleted by centrifugation at 300×g and resuspended in 0.6 ml lysis buffer (20 mM Tris-Cl, pH 7.4, 100 mM NaCl, 10 mM sodium pyrophosphate, 2 mM EDTA, 50 mM NaF, 1 mM sodium orthovanadate, 3% Triton X-100) with protease inhibitors (10 μg/ml aprotinin, 10 μg/ml leupeptin, and 0.2 mM phenylmethylsulfonyl fluoride).
# After incubation on ice for 15 min, debris was pelleted by centrifugation at 16,000×g. βc was immunoprecipitated from the lysate by rotating overnight at 4° with a 1:300 dilution of anti-βcantibody (Upstate Biotechnology, Lake Placid, N.Y.). Twenty microliters of protein A-Sepharose (Pharmacia Biotech, Uppsala, Sweden) were added to each lysate, and the incubation was continued one hour. […]
substance,measurement,setting,value
IL-5: Recombinant human IL-5 (Biosource),time of peak tyrosine phosphorylation of βc,"12.5 ng/ml human IL-5, 37° C.",5 to 10 min
same,time to tyrosine phosphorylation of βc,"12.5 ng/ml human IL-5, 37° C.",≤ 1 min
same,time by which dephosphorylation was evident,"12.5 ng/ml human IL-5, continued presence",≤ 30 min
